Assay results published in patent US7981623B2, “Repressor of skeletal muscle differentiation, nucleic acids coding therefor and the use thereof in diagnosis and therapy” (Universitaetsklinikum Freiburg, priority 2002, dated 2011).
“Also recorded” adds a separate entry of the source. Each block holds one compound with its values, some of them ahead of it.

Assays:
[1] = test system: Gal4-RE-controlled complex and synthetic minimal reporter constructs; assay: Gal4-DBD fusion repression, transient transfection luciferase reporter; format: cell-based; conditions: for effect of HDAC inhibitor on Gal-GRIM1 repression: trichostatin A 300 nM, sodium butyrate 5 mM; for transcriptional repression: Gal4-DBD context, all reporter systems described; for repression potential as Gal4-DBD fusion (in words): transient transfections
From the text: To determine the transcriptional properties of hsGRIM1 proteins in eukaryotic cells, pCMX-hsGRIM1 expression plasmids were cotransfected with luciferase (LUC) reporter plasmids. Expression of the particular hsGRIM1 protein in a pCMX expression plasmid is under the control of the cytomegalovirus promoter. Luciferase expression in the LUC reporter plasmids used is controlled either by the thymidine kinase (TK) promoter, an E1b minimal promoter (TATA box), or by the respectively indicated complex promoters.
Transfection takes place by the calcium phosphate method or by the DOTAP liposomes method (Roche Diagnostics, product information). Unless otherwise indicated, 10^5 cells/well were seeded in 1 ml of culture medium in 12-well dishes. In the CaPO4 method, the plasmid DNA to be transfected is coprecipitated with calcium phosphate, and the precipitate is distributed to the cells capable of division. The calcium phosphate precipitate is prepared by preparing the mixture indicated below for duplicates in 12-well dishes:
While agitating (vortexing), 80 μl of 2xBES buffer are slowly and uniformly added dropwise to this mixture. The precipitate is incubated at RT for 10 min and distributed uniformly to the cells (80 μl per well) and, after 8 hours, removed by washing with PBS. The cells are incubated in fresh culture medium for a further 18 to 24 h. • BES buffer (2×): 50 mM N,N-bis[2hydroxyethyl]-2-aminoethanesulfonic acid; 280 mM NaCl; 1.5 mM Na2HPO4.2H2O; pH 6.95
Transiently transfected cells are washed once with PBS and lyzed by adding 50 μl of reporter lysis buffer (Promega) and further disrupted by freezing at −80° C. Cell lysates are transferred into Eppendorf reaction vessels, and cell detritus is pelleted at 14 000 rpm for 2′. 10 μl portions of the lysates are pipetted into 96-well microtiter plates to determine the luciferase activity. The luciferase assay took place in an EG&G Berthold Microluminomat. 40 μl of luciferase assay buffer are injected into the 10 μl of cell lysate, and the resulting chemiluminescence is determined in a time integral of 10″. The measured values for the luciferase activity are related to the amount of protein present in the cell lysate. For this purpose, 3 μl portions of the lysates are mixed in 96-well microtiter plates with 100 μl of Bradford assay reagent (BioRad) diluted 1:5 with H2O, and the absorption of the solution is determined at 595 nm. Relative luciferase activities are found from the ratio of the luciferase activity to the protein absorption. • Luciferase assay buffer: 200 mM tricine; 1.07 mM (MgCO3).4Mg(OH)2; 0.1 M MgSO4, 10 mM EDTA (pH 8.0); 33 mM DTT; […]; […] acetyl-coenzyme A; […] glowworm luciferin.
All the described data were obtained with the hsGRIM1 clone. […] Gal-GRIM1 represses expression of reporter genes both of Gal4-RE-controlled complex and synthetic minimal reporter constructs. The repression potential of GRIM1 is distinctly greater for example compared with the corepressor Gal-SuN-CoR. In these experiments, the appropriate corepressors are transiently expressed as heterologous Gal4-DBD fusion proteins in cells. The repression capacity on various synthetic promoter-reporter constructs compared with equal quantities of transfected wild-type Gal4-DBD is determined by luciferase reporter gene expression (FIG. 8).
Gal-GRIM1 is equally strong as a repressor as a large number of described corepressors such as, for example, Gal-HDAC1-10, Gal-CBF1, Gal-Alien and represses only insignificantly weaker than Gal-N-CoR-RD or Gal-SMRT-RD. The repression potential of Gal-GRIM1 was investigated in conjunction with the complex Gal43x-tk-LUC and Gal-MMTV-LUC promoter/reporter constructs and in conjunction with the minimal promoter/reporter constructs Gal5x-E1b-TATA-box and Gal3x-βglobin-TATA-LUC. […]

[2] = test system: differentiating C2C12 skeletal muscle cells; assay: GRIM1 relocalization in differentiating C2C12 cells under signal pathway inhibitors; format: cell-based, mouse; conditions: day 0 to day 6 in differentiation medium; Gö6850 1 μM, LY294002 10 μM, Ro31-8220 0.5 μM, PD98059 10 μM, fasudil 10 μM
Protocol: The cells were cultured in the media recommended by the ATCC on 15 cm cell culture dishes under sterile conditions. Cells are subcultured in a ratio of 1:5 to 1:20 every two to three days and kept at a maximum of 60% confluence. Old medium is removed, and the cells are washed with PBS buffer and treated with trypsin/EDTA solution (0.25% trypsin, 0.04% EDTA in PBS buffer) until they are detached from the culture dish. The cells are isolated in fresh medium and subcultured on new subculture dishes. • PBS buffer: 137 mM NaCl; 2.7 mM KCl; 8 mM Na2HPO4; 1.8 mM KH2PO4 • Media used: DMEM (Gibco BRL), 100 IU penicillin G/ml, 100 μg/ml streptomycin, 2 mM glutamine, 10% fetal calf serum. As differentiation medium for C2C12 and L6 cells, 10% FCS was replaced by 2% horse serum.
Cells are seeded in the desired cell density on autoclaved slides and fixed on the support with 5% paraformaldehyde for 10′. Cell membranes are made permeable for antibodies by incubation in 0.2% TritonX100 for 10′. Before the incubation with the primary antibodies, the cells are blocked in 0.2% gelatin (in PBS) at RT for 1 h. Anti-hsGRIM1 antibodies are diluted 1:500 in 0.2% strength gelatin solution and incubated at RT for 1 h. After washing three times with PBS for 5′ each time, the respective fluorochrome-coupled secondary antibody is added 1:2000 in 0.2% gelatin solution and incubated in the dark at RT for 30′. After the washing steps, the nucleus is counterstained with DAPI (1 μg/ml PBS, Roche Diagnostics) and the cells are finally washed twice in 0.1% TritonX100 in order to minimize autofluorescences. The slides are preserved in Fluoromount M (Southern Biotechnology Associates) and analyzed using a fluorescence microscope.
Treatment of differentiating C2C12 skeletal muscle cells with various inhibitors of central signal transduction pathways have no effect on relocalization or the number of nuclear speckles of GRIM1 within the investigated differentiation from day 0 to day 6 after addition of the differentiation medium. Tested inhibitors: pan-HDAC inhibitors TSA and sodium butyrate, protein kinase inhibitors Gö6850 (specific PKC inhibitor, 1 μM), LY294002 (specific P13kinase inhibitor, 10 μM), Ro31-8220 (PKC broad-spectrum inhibitor, 0.5 μM), PD98059 (MEK1 inhibitor, 10 μM), fasudil (Rock kinase inhibitor, 10 μM), SB203580 (p38α/β inhibitor). Overacetylation and blockade of central signal cascades had drastic morphologically visible consequences for some of the cells, but there was no effect on relocalization or the number of detectable GRIM1 speckles.

androgen receptor (hsAR) = assay: GRIM1-AR protein-protein interaction (pulldown, co-IP, yTHS); format: binding, human
Protocol: Further functional characterization of the interaction domains within GRIM1 was carried out by pulldown analyses with the expressible fragments of GRIM1.

[3] = test system: nuclear export of GFP-GRIM1 (exportin1/Crm1); assay: Nuclear export of GFP-GRIM1 under leptomycin B; format: cell-based; conditions: 20 nM for 6 h before cell harvesting
[4] = test system: acetylation of core histones by p300; assay: INHAT assay (in vitro acetylation of histones by p300); format: biochemical; conditions: core histones H3, H2A, H2B and H4
Protocol: INHAT assays were carried out as described by Eckner et al. and by Seo et al. (Eckner et al., 1996, Genes and Development 10 (19), pp 2478-2490, Seo et al., 2001, Cell 104 (1), pp 119-130). Histones or histone mixtures are preincubated with the appropriate peptides in a total of 50 μl of HAT buffer, then mixed with bacterially expressed p300 HAT domains and 0.5 μCi of ^14C-acetyl-coenzyme A, and incubated at 30° C. and 1000 rpm for 2 h. Reactions are stopped by adding SDS Laemmli buffer. Proteins are fractionated in denaturing SDS-PAGE, and the gels are incubated in Amplify (NEN) for 1 h. Acetylations are detected in autoradiographies.
It was possible to show in GST pulldown analyses that the N- and C-terminal fragments of hsGRIM1 can associate directly with histones in vitro.

[5] = test system: core histones H4, H2B, H2A and H3; assay: GST pulldown with core histones; format: binding
Protocol: A protein is expressed as GST fusion protein in E. coli, immobilized on a GST-binding carrier material, and incubated with the potential interactant which is usually radiolabeled. In the subsequent washing steps, proteins which interact only weakly or not at all are washed off the carrier material or the carrier material-bound GST fusion protein. The amount of associated interactant can be determined by fractionation of the proteins by SDS-PAGE and subsequent autoradiography. To check the specificity of interaction between potential interactant and GST fusion protein, the interaction with GST alone is examined.
Aliquots of GST-GRIM1 fragments or GST-containing E. coli crude lysate are mixed in each case with 30 μl of glutathione(GSH)-Sepharose and incubated on a bohemian wheel at 4° C. for 1 h. The GSH-Sepharose is pelleted by centrifugation (1′ at 2000 rpm) and washed twice in pulldown buffer. The pellet is then resuspended in 500 μl of pulldown buffer and incubated with the in vitro translated, […] potential interactant at 4° C. on the bohemian wheel for 1 h. […]

brought about a change in the transcriptional activity of Gal-GRIM1 ([1]; PKC inhibition or activation, various cell lines): Neither
Compound: CN(C)CCCn1cc(C2=C(c3c[nH]c4ccccc34)C(=O)NC2=O)c2ccccc21 [Gö6850]
effect on relocalization or number of nuclear speckles of GRIM1 [2]: no effect

Compound: O=c1cc(N2CCOCC2)oc2c(-c3ccccc3)cccc12 [LY294002]
effect on relocalization or number of nuclear speckles of GRIM1 [2]: no effect

Compound: COc1cccc(-c2cc(=O)c3ccccc3o2)c1N [PD98059]
effect on relocalization or number of nuclear speckles of GRIM1 [2]: no effect

Compound: Cn1cc(C2=C(c3cn(CCCSC(=N)N)c4ccccc34)C(=O)NC2=O)c2ccccc21 [Ro31-8220]
effect on relocalization or number of nuclear speckles of GRIM1 [2]: no effect

Compound: C[S+]([O-])c1ccc(-c2nc(-c3ccncc3)c(-c3ccc(F)cc3)[nH]2)cc1 (centres unmarked) [SB203580]
effect on relocalization or number of nuclear speckles of GRIM1 [2]: no effect

Compound: O=S(=O)(c1cccc2cnccc12)N1CCCNCC1 [fasudil]
effect on relocalization or number of nuclear speckles of GRIM1 [2]: no effect

influence of AR antagonist on GRIM1-AR interaction (androgen receptor (hsAR)): cannot be influenced
Compound: CC(C)(O)C(=O)Nc1ccc([N+](=O)[O-])c(C(F)(F)F)c1 [hydroxyflutamide]

Compound: CCC(=C/[C@H](C)C/C=C/C(C)=C/[C@@H](C)C(=O)[C@@H](C)[C@H](O)[C@@H](C)C/C(C)=C/C(=O)O)/C=C/[C@@H]1OC(=O)C=C[C@@H]1C [leptomycin B]
effect on nuclear export of GFP-GRIM1 or GFP-GRIM1 aa234-336 [3]: not influenced

Compound: CCCC(=O)[O-].[Na+] [sodium butyrate]
effect of HDAC inhibitor on Gal-GRIM1 repression [1]: not impaired
effect on relocalization or number of nuclear speckles of GRIM1 [2]: no effect

effect on general transcription ([1]; cotransfection of full-length p300 and Gal-GRIM1): enhances general transcription
Compound: CC(/C=C/C(=O)NO)=C\[C@@H](C)C(=O)c1ccc(N(C)C)cc1 [trichostatin A]
effect of HDAC inhibitor on Gal-GRIM1 repression [1]: not impaired; also recorded: relative repression by Gal-GRIM1 remains unchanged; also recorded: not influenced
effect on relocalization or number of nuclear speckles of GRIM1 [2]: no effect

Compound: GRIM1 aa 3-147: recombinantly expressed N-terminal hsGRIM1 fragment, tag not stated
inhibition of histone acetylation by p300 (INHAT activity) [4]: efficiently blocks acetylation

Compound: GST-E: GST-fused hsGRIM1 aa 3-147
interaction with core histones [5]: marked interaction

interacted with the AR in pulldown (androgen receptor (hsAR); GST fragments, in the sequence M≧H>>I): interacted with the AR
Compound: GST-I: GST-fused hsGRIM1 aa 609-749
interaction with core histones [5]: marked interaction

transcriptional repression [1]: 2 ×
repression potential as Gal4-DBD fusion (in words) [1]: smallest repressive effect
Compound: Gal-E: hsGRIM1 aa 3-147 as Gal4-DBD fusion

transcriptional repression [1]: 2 ×
repression potential as Gal4-DBD fusion (in words) [1]: smallest repressive effect
Compound: Gal-I: hsGRIM1 aa 609-749 as Gal4-DBD fusion (Table 8; Table 2 differs)

interaction with hsAR (androgen receptor (hsAR); tfIP, utfIP, yTHS, PD and tT): strong direct interaction
Compound: mmGRIM1: mouse GRIM1, 750 amino acids, Seq. ID No. 4
